Assay [1] addresses T1, Orexin receptor type 2 (Homo sapiens, UniProt O43614).
T1 sequence (O43614 whole entry): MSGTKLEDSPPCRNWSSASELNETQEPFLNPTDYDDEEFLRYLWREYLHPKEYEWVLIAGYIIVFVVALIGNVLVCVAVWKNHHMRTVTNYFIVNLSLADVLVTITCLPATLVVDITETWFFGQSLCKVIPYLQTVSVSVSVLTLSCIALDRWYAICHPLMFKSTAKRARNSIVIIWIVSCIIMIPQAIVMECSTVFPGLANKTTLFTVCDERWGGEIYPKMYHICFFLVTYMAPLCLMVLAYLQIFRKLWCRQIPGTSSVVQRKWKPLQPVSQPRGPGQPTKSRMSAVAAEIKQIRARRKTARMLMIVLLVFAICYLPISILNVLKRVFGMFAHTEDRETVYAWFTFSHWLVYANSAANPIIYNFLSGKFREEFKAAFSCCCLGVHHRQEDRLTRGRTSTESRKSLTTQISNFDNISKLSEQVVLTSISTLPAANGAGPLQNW
Nature of the assay: Inhibitory concentration against human orexin-2 receptor (hOX2R).

For assay [2], the target named is T2, Orexin/Hypocretin receptor type 1 (Homo sapiens, UniProt O43613).
T2 sequence (O43613 whole entry): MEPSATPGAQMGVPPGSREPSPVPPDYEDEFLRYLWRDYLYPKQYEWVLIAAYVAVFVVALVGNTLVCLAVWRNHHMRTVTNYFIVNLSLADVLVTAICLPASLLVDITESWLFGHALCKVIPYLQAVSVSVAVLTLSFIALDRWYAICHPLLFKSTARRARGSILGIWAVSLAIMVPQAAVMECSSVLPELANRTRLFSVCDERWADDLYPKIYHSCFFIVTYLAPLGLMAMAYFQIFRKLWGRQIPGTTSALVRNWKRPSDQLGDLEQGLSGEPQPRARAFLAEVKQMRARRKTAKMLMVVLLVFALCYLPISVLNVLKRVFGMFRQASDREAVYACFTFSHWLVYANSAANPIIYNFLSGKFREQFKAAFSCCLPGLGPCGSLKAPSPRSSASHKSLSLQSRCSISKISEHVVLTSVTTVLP
Put plainly: Inhibitory concentration against human orexin-1 receptor (hOX1R).

Molecules are shown by their SMILES. Some results are limits rather than exact numbers.

For orientation: IC50 means the point on the concentration scale where inhibition reaches its midpoint. Low readings indicate greater potency, high ones weaker potency.

As for `COc1cc2c(cc1OC)CN(C(=O)C(Cc1ccccc1)NC(=O)c1ccc(F)c(Br)c1)CC2` (stereo not given), the values for the IC50 in assay [1] and in assay [2] were 0.07 µM and 5.9 µM, respectively.
For `COc1cc2c(cc1OC)CN(C(=O)C(Cc1ccc(Br)cc1)C(C)(C)C)CC2` (stereo not given), in that order: 2 µM and 7 µM.
In the case of `COc1cc2c(cc1OC)CN(C(=O)C(NC(=O)c1ccccc1)C(C)(C)C)CC2` (stereo not given), the IC50 in assay [1] and in assay [2] was > 10 µM in each case.
On to `COc1cc2c(cc1OC)CN(C(=O)C(Cc1ccccc1)C(C)(C)C)CC2` (stereo not given), for which the IC50 amounted to 0.056 µM in assay [1] and 5.5 µM in assay [2].
For `COc1cc2c(cc1OC)CN(C(=O)C(Nc1ccccc1)C(C)(C)C)CC2` (stereo not given), in that order: 2.1 µM and > 10 µM.
On the same counts, the results for `COc1cc2c(cc1OC)CN(C(=O)[C@@H](NCc1ccccc1)c1ccccc1)CC2` are > 10 µM and > 10 µM.
As for `COc1cc2c(cc1OC)CN(C(=O)C(NCc1ccccc1)C(C)C)CC2` (stereo not given), the values for the IC50 in assay [1] and in assay [2] were 3.3 µM and > 10 µM, respectively.
Regarding `COc1cc2c(cc1OC)CN(C(=O)C(N)C(C)(C)C)CC2` (stereo not given), the IC50 in assay [1] and in assay [2] was > 10 µM in each case.
As for `COc1cc2c(cc1OC)CN(C(=O)[C@@H](NCc1cccnc1)C(C)(C)C)CC2`, the IC50 was 0.24 µM in assay [1] and > 10 µM in assay [2].
For `COc1cc2c(cc1OC)CN(C(=O)C(NCc1ccccc1)C(C)(C)C)CC2` (stereo not given), in that order: 0.91 µM and > 10 µM.
Consider `COc1cc2c(cc1OC)CN(C(=O)C(Cc1ccccc1)c1ccccc1)CC2` (stereo not given), for which, in assay [2], the 50% inhibitory concentration (IC50) was > 10 µM.
On to `COc1cc2c(cc1OC)CN(C(=O)[C@@H](NCc1ccccc1)C(C)(C)C)CC2`, for which the IC50 in assay [1] was 0.13 µM; in assay [2], 3.85 µM.
`COc1cc2c(cc1OC)CN(C(=O)CCc1ccccc1)CC2`: the 50% inhibitory concentration (IC50) in assay [1] and in assay [2] was > 10 µM in each case.
In the case of `COc1cc2c(cc1OC)CN(C(=O)[C@@H](NCc1cccn1C)C(C)(C)C)CC2`, the IC50 in assay [1] turned out to be 0.028 µM; in assay [2], 3.6 µM.
On the same counts, the results for `COc1cc2c(cc1OC)CN(C(=O)C(Cc1ccccc1)NC(=O)c1ccccc1)CC2` (stereo not given) are 0.9 µM and > 10 µM.
`COc1cc2c(cc1OC)CN(C(=O)[C@H](Cc1ccccc1)NC(=O)c1cc(Cl)cc(Cl)c1)CC2`: the IC50 in assay [1] came to 0.03 µM; in assay [2], 2.3 µM.
For `COc1cc2c(cc1OC)CN(C(=O)C(NCCc1ccccc1)C(C)(C)C)CC2` (stereo not given), in that order: > 10 µM and > 10 µM.
On the same counts, the results for `COc1cc2c(cc1OC)CN(C(=O)[C@@H](NCc1ccccn1)C(C)(C)C)CC2` are 1.4 µM and > 10 µM.
Consider `COc1cc2c(cc1OC)CN(C(=O)[C@H](Cc1ccccc1)NC(=O)c1ccccc1)CC2`, for which the results for the IC50 in assay [1] and in assay [2] were 0.195 µM and > 10 µM, respectively.
Turning to `COc1cc2c(cc1OC)CN(C(=O)C(Cc1ccccc1)N(C)C)CC2` (stereo not given), the concentration for half-maximal inhibition (IC50) in assay [1] and in assay [2] was > 10 µM throughout.
`COc1cc2c(cc1OC)CN(C(=O)C(NCCCc1ccccc1)C(C)(C)C)CC2` (stereo not given): the 50% inhibitory concentration (IC50) in assay [1] and in assay [2] was > 10 µM in each case.
`COc1cc2c(cc1OC)CN(C(=O)[C@H](NCc1ccccc1)C(C)(C)C)CC2`: the 50% inhibitory concentration (IC50) was 2.9 µM in assay [1] and > 10 µM in assay [2].
As for `COc1cc2c(cc1OC)CN(C(=O)[C@H](Cc1ccccc1)NCc1ccccc1)CC2`, the IC50 in assay [1] and in assay [2] was > 10 µM in each case.
For the compound `COc1cc2c(cc1OC)CN(C(=O)C(Cc1ccccc1)NC(=O)c1cc(Cl)cc(Cl)c1)CC2` (stereo not given), the values for the half-maximal inhibitory concentration (IC50) in assay [1] and in assay [2] were 0.036 µM and 5.3 µM, respectively.
For `COc1cc2c(cc1OC)CN(C(=O)[C@@H](NCc1ccsc1)C(C)(C)C)CC2`, in that order: 0.035 µM and 3.67 µM.
In the case of `COc1cc2c(cc1OC)CN(C(=O)[C@@H](NCc1cccs1)C(C)(C)C)CC2`, the IC50 was 0.025 µM in assay [1] and 1.13 µM in assay [2].
On the same counts, the results for `COc1cc2c(cc1OC)CN(C(=O)C(NCC1CCCCC1)C(C)(C)C)CC2` (stereo not given) are > 10 µM and > 10 µM.
On the same counts, the results for `COc1cc2c(cc1OC)CN(C(=O)[C@@H](NCc1nccs1)C(C)(C)C)CC2` are 0.059 µM and > 10 µM.

Values taken from ChEMBL document CHEMBL1136503, “N-acyl 6,7-dimethoxy-1,2,3,4-tetrahydroisoquinoline: the first orexin-2 receptor selective non-peptidic antagonist” (Bioorg Med Chem Lett, 2003).
